The text below walks through data of patent US8604217B2, “Compound, a process for its preparation, a pharmaceutical composition, use of a compound, a method for modulating or regulating serine/threonine kinases and a serine/threonine kinases modulating agent” (Selvita S.A., priority 2009, dated 2013).

In brackets after ≈: the same amount, converted by molar mass.

The test system of data set [1] is human acute lymphocytic leukemia E6.1 Jurkat cells. In words: Growth inhibition test (MTS) on E6.1 Jurkat cells. The data set is classed as cell-based. Conditions: 72 hours, read-out: Jurkat ED50.
Data set [2] concerns human erytroblast leukemia HEL-92.1.7 cells. In words: Growth inhibition test (MTS) on HEL-92.1.7 cells. The data set is classed as cell-based. Conditions: 72 hours, read-out: HEL92 ED50. The protocol:
Ten thousand cells of human erytroblast leukemia HEL-92.1.7 were inoculated into each well of a 96-well microplate (manufactured by Corning Corp.) using RPMI 1640 medium (culture medium) containing 10% fetal calf serum (FCS). Next day, a dimethyl sulfoxide (DMSO) solution of each test compound prepared in a concentration of 10 mmol/L was further diluted with culture medium to the desired concentrations (0.1, 0.5, 1, 2.5, 5 and 10 micromol/L), and the diluted solution was added to each well. The individual wells were further cultured in 5% carbon dioxide at 37° C. for 72 hours. After completion of the culture, 10 μl MTS (3-(4,5-Dimethyl-2-thiazolyl)-5-(carboxymethoxyphenyl)-2-(4-sulfophenyl)-2H-tetrazolium, inner salt assay (CellTiter96® AQueous One Solution Cell Proliferation Assay, Promega) was added to each well, and culturing was performed in 5% carbon dioxide at 37° C. for 2 hours. Using a microplate spectrophotometer (Synergy 2 multi-mode microplate reader (BioTek)), the absorbance of each well was measured at 490 nm. The value for cells not incorporated with a test compound was designated as 100%. By comparing these values with the absorbance difference obtained at the well in which each test compound was added, the cell viability (% viability) after treatment with the test compound was calculated.

In data set [3] the test system is human breast adenocarcinoma MCF7 cells. Briefly: Growth inhibition test (MTS) on MCF7 cells. The data set is classed as cell-based. The conditions noted are these: Homo sapiens, MCF7, 72 hours, read-out: MCF-7 ED50. The procedure, abridged:
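MCF7 cells seeded in DMEM with 10% FCS, dosed next day at 0.1–10 micromol/L (diluted from 10 mmol/L DMSO stock) and cultured 72 h at 37° C, 5% CO2. MTS added for 2 h, absorbance read at 490 nm; % viability calculated relative to untreated cells as 100%.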

The subject of data set [4] is human hepatoma HepG2 cells. In words: Growth inhibition test (MTS) on HepG2 cells. The data set is classed as cell-based. Conditions: 72 hours, read-out: HepG2 ED50. The procedure, abridged:
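HepG2 cells in DMEM with 10% FCS were exposed for 72 h at 37 °C, 5% CO2, to 0.1, 0.5, 1, 2.5, 5 and 10 micromol/L compound. MTS was then added for 2 h and absorbance read at 490 nm. % viability was calculated relative to untreated cells set at 100%.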

The nature of data set [5]: Solubility in phosphate buffer pH 7.4. The data set is classed as physicochemical. The conditions noted are these: aqueous buffer, kinetic from dmso stock, pH 7.4, 24 hours at 37° C., 1% DMSO. The source says:
In general, tetrahalogenated benzimidazoles are poorly soluble compounds, what renders their chances for successful therapeutic administration in commonly used routes of administration and standard conditions. In contrast to previously published tetrabromobenzimidazoles exemplified by DMAT, certain compounds provided in the application show a markedly increase in water solubility. As solubility is one of the key parameters that influences compound pharmacokinetics, permeability and therefore also activity in vitro and in vivo, improved solubility of the selected compounds is a surprising feature that can lead to improved efficacy in treating PIM kinase associated disease conditions.

Data set [6] deals with tumors derived from MV4-11 cells xenografted in nude mice. Briefly: In vivo anticancer activity, MV4-11 xenograft. The conditions noted are these: QD, PO; for TGI (%): 150 mg/kg, 21 days, MV4-11 xenograft in nude mice; for tumor growth inhibition (in words): after 21 days of treatment. As for the experimental part:
The anticancer activity of compounds 20, 359 and 416 was assessed on tumors derived from MV4-11 cells xenografted in nude mice. Mice were inoculated with 5*10^6 cells and the tumor volume was measured until it reached 100 mm^3. Throughout the whole study tumor volume has been measured (FIG. 2) and tumor growth inhibition (TGI) was calculated.

In the case of `NCCCNc1nc2c(Br)c(Br)c(Br)c(Br)c2[nH]1` [Compound 11, N-(3-aminopropyl)-4,5,6,7-tetrabromo-1H-benzo[d]imidazol-2-amine], the IC50 in data set [1] was 3.46 µM; in data set [2], 5.7 µM; in data set [3], 4.7 µM; in data set [4], 2.84 µM.
As for `Brc1c(Br)c(Br)c2[nH]c(N3CCNCC3)nc2c1Br` [Compound 20, 4,5,6,7-tetrabromo-2-(piperazin-1-yl)-1H-benzo[d]imidazole], the solubility at 24 h in data set [5] came out at 81 µM (≈ 41.9 µg/mL). Moreover, the IC50 in data set [2] is 6.04 µM; in data set [3], 2.47 µM; in data set [4], 2.86 µM. In addition, in data set [6], the “TGI (%)” value is −57.8%. Also, the “tumor growth inhibition (in words)” value in data set [6] is “most pronounced tumor growth inhibition”.
In the case of `NC1CCC(Nc2nc3c(Br)c(Br)c(Br)c(Br)c3[nH]2)CC1` (stereo not shown) [Compound 87, N1-(4,5,6,7-tetrabromo-1H-benzo[d]imidazol-2-yl)cyclohexane-1,4-diamine], the IC50 in data set [1] stood at 5.81 µM; in data set [2], 9.07 µM; in data set [3], 5.62 µM; in data set [4] it was 3.8 µM.
Regarding `NC1CCCC(Nc2nc3c(Br)c(Br)c(Br)c(Br)c3[nH]2)C1` (stereo not shown) [Compound 336, N1-(4,5,6,7-tetrabromo-1H-benzo[d]imidazol-2-yl)cyclohexane-1,3-diamine], the IC50 was 6.2 µM in data set [3] and 4.87 µM in data set [4].
In the case of `Brc1c(Br)c(Br)c2[nH]c(N[C@H]3COC[C@@H]3N3CCCC3)nc2c1Br` [Compound 337, 4,5,6,7-tetrabromo-N-((3R,4R)-tetrahydro-4-(pyrrolidin-1-yl)furan-3-yl)-1H-benzo[d]imidazol-2-amine], the IC50 in data set [2] was 4.5 µM; in data set [3], 1.78 µM; in data set [4], 2.4 µM.
In the case of `Brc1c(Br)c(Br)c2[nH]c(N[C@H]3COC[C@@H]3N3CCCCC3)nc2c1Br` [Compound 338, 4,5,6,7-tetrabromo-N-((3R,4R)-tetrahydro-4-(piperidin-1-yl)furan-3-yl)-1H-benzo[d]imidazol-2-amine], the values for the IC50 in data set [2], in data set [3] and in data set [4] were 5.68 µM, 2.5 µM and 2.76 µM, respectively.
The matching figures for `NCc1ccccc1CNc1nc2c(Br)c(Br)c(Br)c(Br)c2[nH]1` [Compound 349, N-(2-(aminomethyl)benzyl)-4,5,6,7-tetrabromo-1H-benzo[d]imidazol-2-amine]: 6 µM, 2.75 µM and 2.51 µM.
`CN1CCCC(Nc2nc3c(Br)c(Br)c(Br)c(Br)c3[nH]2)CC1` (stereo not shown) [Compound 358, 4,5,6,7-tetrabromo-N-(1-methylazepan-4-yl)-1H-benzo[d]imidazol-2-amine]: the figures for the IC50 in data set [2], in data set [3] and in data set [4] were 7.65 µM, 3.03 µM and 2.65 µM, respectively.
Turning to `CC(C)n1c(N2CCNCC2)nc2c(Br)c(Br)c(Br)c(Br)c21` [Compound 359, 4,5,6,7-tetrabromo-1-isopropyl-2-(piperazin-1-yl)-1H-benzo[d]imidazole], the IC50 in data set [2] amounted to 3.85 µM; in data set [3], 1.6 µM; in data set [4] it was 1.85 µM. In data set [6], the “TGI (%)” value was −84.7%. Also, the “tumor growth inhibition (in words)” value in data set [6] is on record as “most pronounced tumor growth inhibition”.
Regarding `C[C@@H]1CN(c2nc3c(Br)c(Br)c(Br)c(Br)c3[nH]2)[C@@H](C)CN1` [Compound 364, 4,5,6,7-tetrabromo-2-((2S,5R)-2,5-dimethylpiperazin-1-yl)-1H-benzo[d]imidazole], the IC50 was determined as 5.57 µM in data set [2], 1.6 µM in data set [3] and 2.33 µM in data set [4].
For the molecule `Brc1c(Br)c(Br)c2[nH]c(NC3CCCNCC3)nc2c1Br` (stereo not shown) [Compound 366, N-(azepan-4-yl)-4,5,6,7-tetrabromo-1H-benzo[d]imidazol-2-amine], the IC50 in data set [2] was 5.1 µM; in data set [3], 2.15 µM; in data set [4], 1.7 µM.
On the same counts, the results for `CC(C)NC1CCCCC1Nc1nc2c(Br)c(Br)c(Br)c(Br)c2[nH]1` (stereo not shown) [Compound 369, N1-(4,5,6,7-tetrabromo-1H-benzo[d]imidazol-2-yl)-N2-isopropylcyclohexane-1,2-diamine] are 6.2 µM, 1.6 µM and 1.4 µM.
The matching figures for `Brc1c(Br)c(Br)c2c(nc(N3CCNCC3)n2Cc2ccccc2)c1Br` [Compound 374, 1-benzyl-4,5,6,7-tetrabromo-2-(piperazin-1-yl)-1H-benzo[d]imidazole]: 3 µM, 1.5 µM and 1.33 µM.
On the same counts, the results for `CN(C)C1CCCN(c2nc3c(Br)c(Br)c(Br)c(Br)c3[nH]2)C1` (stereo not shown) [Compound 378, 1-(4,5,6,7-tetrabromo-1H-benzo[d]imidazol-2-yl)-N,N-dimethylpiperidin-3-amine] are 9.04 µM, 6.19 µM and 4.2 µM.
In the case of `Brc1c(Br)c(Br)c2[nH]c(N3CCC(C4CCNCC4)CC3)nc2c1Br` [Compound 386, 4,5,6,7-tetrabromo-2-(4-(piperidin-4-yl)piperidin-1-yl)-1H-benzo[d]imidazole], the IC50 in data set [2] was found to be 6.12 µM; in data set [3], 2.47 µM.
`CCCCCNC1CCCCC1Nc1nc2c(Br)c(Br)c(Br)c(Br)c2[nH]1` (stereo not shown) [Compound 413, N1-(4,5,6,7-tetrabromo-1H-benzo[d]imidazol-2-yl)-N2-pentylcyclohexane-1,2-diamine]: the IC50 in data set [2] was 3.29 µM; in data set [3] it was 1.3 µM; in data set [4], 1.36 µM.
Consider `CCCn1c(N2CCNCC2)nc2c(Br)c(Br)c(Br)c(Br)c21` [Compound 417, 4,5,6,7-tetrabromo-2-(piperazin-1-yl)-1-propyl-1H-benzo[d]imidazole], for which the IC50 in data set [2] stood at 3.28 µM; in data set [3], 2.54 µM; in data set [4] it was 1.85 µM.
With `Brc1c(Br)c(Br)c2[nH]c(NC3CCNCC3)nc2c1Br` [Compound 435, 4,5,6,7-tetrabromo-N-(piperidin-4-yl)-1H-benzo[d]imidazol-2-amine], the IC50 in data set [2] is 5.71 µM; in data set [3], 3.49 µM.
On to `CCn1c(N2CCN(CCN3CCNCC3)CC2)nc2c(Br)c(Br)c(Br)c(Br)c21` [Compound 441, 4,5,6,7-tetrabromo-1-ethyl-2-(4-(2-(piperazin-1-yl)ethyl)piperazin-1-yl)-1H-benzo[d]imidazole], for which the IC50 in data set [2] is 0.6 µM; in data set [3] it was 1.3 µM; in data set [4], 0.7 µM.
Consider `CCn1c(N2CCN(CCCN3CCOCC3)CC2)nc2c(Br)c(Br)c(Br)c(Br)c21` [Compound 450], for which the figures for the IC50 in data set [2], in data set [3] and in data set [4] were 0.8 µM, 2 µM and 1.5 µM, respectively.
On to `Brc1c(Br)c(Br)c2c(Br)n[nH]c2c1Br` [Compound K64, 3,4,5,6,7-pentabromo-1H-indazole, reference compound], for which the IC50 in data set [1] and in data set [4] was > 10 µM throughout.
With `CN(C)c1nc2c(Br)c(Br)c(Br)c(Br)c2n1CC(=O)O` [Compound K66, 1-carboxymethyl-2-dimethylamino-4,5,6,7-tetrabromo-benzimidazole, reference compound], the IC50 in data set [1] and in data set [4] was > 10 µM throughout.
In the case of `CN(C)c1nc2c(Br)c(Br)c(Br)c(Br)c2[nH]1` [DMAT, 2-dimethylamino-4,5,6,7-tetrabromo-1H-benzimidazole, reference compound], the solubility at 24 h in data set [5] was < 10 µM. The figures for the IC50 in data set [1], in data set [3] and in data set [4] were 8.18 µM, > 10 µM and > 10 µM, respectively.
Regarding `Brc1c(Br)c(Br)c2[nH]nnc2c1Br` [TBB, 4,5,6,7-tetrabromo-1Hbenzotriazole, reference compound], the IC50 in data set [1] and in data set [4] was > 10 µM throughout.
As to `Brc1c(Br)c(Br)c2[nH]cnc2c1Br` [TBI, 4,5,6,7-tetrabromo-1H-benzimidazole, reference compound], the IC50 in data set [1] and in data set [4] was > 10 µM throughout.
